Experiment [1] addresses T1, human cloned CHRM4 receptor (Homo sapiens, UniProt P08173).
T1 construct: expressed in transfected cells; host or cells: CHO-K1 (M4_CHO)
T1 sequence (P08173 1-479): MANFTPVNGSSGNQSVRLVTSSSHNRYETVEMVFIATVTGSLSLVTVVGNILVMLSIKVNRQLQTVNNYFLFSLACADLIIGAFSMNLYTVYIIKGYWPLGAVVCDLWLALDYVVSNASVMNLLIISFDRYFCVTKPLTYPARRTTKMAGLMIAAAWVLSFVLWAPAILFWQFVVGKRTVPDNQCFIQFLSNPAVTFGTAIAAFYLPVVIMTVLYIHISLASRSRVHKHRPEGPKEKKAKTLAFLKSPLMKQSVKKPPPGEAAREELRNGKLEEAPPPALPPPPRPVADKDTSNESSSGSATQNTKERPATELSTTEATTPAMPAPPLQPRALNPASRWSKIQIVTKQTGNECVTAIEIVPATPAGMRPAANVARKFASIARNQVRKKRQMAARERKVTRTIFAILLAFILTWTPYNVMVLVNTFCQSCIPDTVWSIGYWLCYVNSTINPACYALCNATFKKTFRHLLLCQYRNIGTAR
Kind of experiment: CHRM4 Ca++ Flux Assay (M4_CHO cells, agonist mode). The following applies: for M4 FDSS PA % / Emax: Percent Activity (PA); for EC50: geometric mean if tested more than once, read-out: M4 FDSS EC50; for Emax: read-out: M4 FDSS PA %. Type of experiment: cell-based. The gist of the method: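 CHO-K1 cells stably expressing human M4 were dye-loaded, then held 60 min at RT in Ca/Mg-free HBSS buffer with 20 μM ATP. Ca++ traces were recorded over 3 min after an 11-point compound series in triplicate, agonist mode, with a four-parameter fit. Percent activity is relative to the carbachol EC100; repeat tests are geometric means.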

For experiment [2], the target named is T2, human cloned CHRM3 receptor (Homo sapiens, UniProt P20309).
T2 construct: expressed in transfected cells; host or cells: CHO-K1 (M3_CHO)
Kind of experiment: CHRM3 Ca++ Flux Assay (M3_CHO cells, agonist mode). Type of experiment: cell-based. The following applies: for M3 FDSS PA % / Emax: Percent Activity (PA) measured to EC100 of Carbachol; for EC50: agonist mode, geometric mean if tested more than once, read-out: M3 FDSS EC50; for Emax: read-out: M3 FDSS PA %. In short, it runs like this: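 CHO-K1 cells stably expressing human M3 or M5 receptor, dye-loaded ≥1 h, treated with 11-point compound doses in triplicate; Ca++ flux read over 3 min (FDSS). Agonist-mode four-parameter fit; percent activity relative to carbachol EC100; repeat tests reported as geometric mean.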

SMILES strings stand for the structures. Structures can show the parent of a compound that is named as a salt.

T2 sequence (P20309 whole entry): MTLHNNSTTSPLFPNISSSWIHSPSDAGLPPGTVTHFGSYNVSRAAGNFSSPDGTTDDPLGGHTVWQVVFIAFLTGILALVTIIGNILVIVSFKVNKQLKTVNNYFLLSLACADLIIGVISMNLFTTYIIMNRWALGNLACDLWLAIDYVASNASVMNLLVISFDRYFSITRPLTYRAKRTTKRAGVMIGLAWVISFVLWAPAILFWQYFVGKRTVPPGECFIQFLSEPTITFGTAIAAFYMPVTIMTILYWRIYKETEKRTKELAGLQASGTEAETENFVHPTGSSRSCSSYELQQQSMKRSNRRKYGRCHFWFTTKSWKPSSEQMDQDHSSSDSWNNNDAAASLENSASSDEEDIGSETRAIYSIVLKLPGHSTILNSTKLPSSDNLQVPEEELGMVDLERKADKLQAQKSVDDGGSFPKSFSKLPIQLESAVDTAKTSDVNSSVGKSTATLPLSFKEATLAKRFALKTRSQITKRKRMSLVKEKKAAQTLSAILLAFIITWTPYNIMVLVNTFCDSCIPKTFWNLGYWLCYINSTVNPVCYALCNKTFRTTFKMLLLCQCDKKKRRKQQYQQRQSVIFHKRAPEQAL

On to `CC(C)(O)[C@H]1C[C@H](Oc2ccc(F)cc2C2CCN([C@@H]3COC4(C3)CN(c3nnco3)C4)CC2)C1` (single isomer, unassigned) [Example 2V, 2-((1S,3r)-3-(2-(1-((S)-2-(1,3,4-oxadiazol-2-yl)-5-oxa-2-azaspiro[3.4]octan-7-yl)piperidin-4-yl)-4-fluorophenoxy)cyclobutyl)propan-2-ol or 2-((1R,3s)-3-(2-(1-((S)-2-(1,3,4-oxadiazol-2-yl)-5-oxa-2-azaspiro[3.4]octan-7-yl)piperidin-4-yl)-4-fluorophenoxy)cyclobutyl)propan-2-ol], for which, in experiment [1], the “M4 FDSS PA %” value was 75% and the EC50 came to 94 nM. For the same compound, in experiment [2], the “M3 FDSS PA %” value amounted to 0% and the EC50 is more than 25000 nM.
Take `Fc1ccc(OC2COC2)c(C2CCN([C@@H]3COC4(C3)CN(c3ncco3)C4)CC2)c1` [Example 4A, (S)-7-(4-(5-fluoro-2-(oxetan-3-yloxy)phenyl)piperidin-1-yl)-2-(oxazol-2-yl)-5-oxa-2-azaspiro[3.4]octane]: in experiment [1], the Emax was 80% and the EC50 amounted to 4 nM. Also, in experiment [2], the Emax came out at 0% and the EC50 is more than 25000 nM.
Turning to `Fc1ccc(OC2CCOCC2)c(C2CCN([C@@H]3COC4(C3)CN(c3nncs3)C4)CC2)c1` [Example 5J, (S)-7-(4-(5-fluoro-2-((tetrahydro-2H-pyran-4-yl)oxy)phenyl)piperidin-1-yl)-2-(1,3,4-thiadiazol-2-yl)-5-oxa-2-azaspiro[3.4]octane], the Emax in experiment [1] is 92%; in experiment [2], 0%. For the same compound, the values for the EC50 in experiment [1] and in experiment [2] were 29 nM and more than 25000 nM, respectively.
The like results for `c1ccc(C2CCN([C@@H]3COC4(C3)CN(c3ncco3)C4)CC2)c(O[C@@H]2CCOC2)c1` [Example 4F, (S)-2-(oxazol-2-yl)-7-(4-(2-(((R)-tetrahydrofuran-3-yl)oxy)phenyl)piperidin-1-yl)-5-oxa-2-azaspiro[3.4]octane] were, in that order, 80%, 0%, 15 nM and more than 25000 nM.
As to `OC[C@H]1C[C@H](Oc2ccc(F)cc2C2CCN([C@@H]3COC4(C3)CN(c3nnco3)C4)CC2)C1` (single isomer, unassigned) [Example 2II, ((1S,3r)-3-(2-(1-((S)-2-(1,3,4-oxadiazol-2-yl)-5-oxa-2-azaspiro[3.4]octan-7-yl)piperidin-4-yl)-4-fluorophenoxy)cyclobutyl)methanol or ((1R,3s)-3-(2-(1-((S)-2-(1,3,4-oxadiazol-2-yl)-5-oxa-2-azaspiro[3.4]octan-7-yl)piperidin-4-yl)-4-fluorophenoxy)cyclobutyl)methanol], in experiment [1], the “M4 FDSS PA %” value is 81% and the EC50 is 124 nM. In experiment [2], the “M3 FDSS PA %” value is 0% and the EC50 is more than 25000 nM.
Consider `Fc1cc(OCC2(F)COC2)c(C2CCN([C@@H]3COC4(C3)CN(c3ncco3)C4)CC2)cc1F` [Example 4P, (S)-7-(4-(4,5-difluoro-2-((3-fluorooxetan-3-yl)methoxy)phenyl)piperidin-1-yl)-2-(oxazol-2-yl)-5-oxa-2-azaspiro[3.4]octane], for which, in experiment [1], the Emax was determined as 63% and the EC50 worked out at 5 nM. Also, in experiment [2], the Emax came to 0% and the EC50 was more than 25000 nM.
Taken in the same sequence, the figures for `Fc1ccc(O[C@H]2CCOC2)c(C2CCN([C@@H]3COC4(C3)CN(c3nncs3)C4)CC2)c1` [Example 5O, (S)-7-(4-(5-fluoro-2-(((S)-tetrahydrofuran-3-yl)oxy)phenyl)piperidin-1-yl)-2-(1,3,4-thiadiazol-2-yl)-5-oxa-2-azaspiro[3.4]octane] were 74%, 71 nM, 0% and more than 25000 nM.
For `Fc1ccc(O[C@H]2CCCOC2)c(C2CCN([C@@H]3COC4(C3)CN(c3nnco3)C4)CC2)c1` (single isomer, unassigned) [Example 2R, (S)-7-(4-(5-fluoro-2-(((S)-tetrahydro-2H-pyran-3-yl)oxy)phenyl)piperidin-1-yl)-2-(1,3,4-oxadiazol-2-yl)-5-oxa-2-azaspiro[3.4]octane or (S)-7-(4-(5-fluoro-2-(((R)-tetrahydro-2H-pyran-3-yl)oxy)phenyl)piperidin-1-yl)-2-(1,3,4-oxadiazol-2-yl)-5-oxa-2-azaspiro[3.4]octane], in experiment [1], the “M4 FDSS PA %” value is given as 76% and the concentration for a half-maximal effect (EC50) came to 25 nM. In experiment [2], the “M3 FDSS PA %” value came to 0% and the EC50 is more than 25000 nM.
Taken in the same sequence, the figures for `C[C@H](Oc1ccc(F)cc1C1CCN([C@@H]2COC3(C2)CN(c2nnco2)C3)CC1)C1CCOCC1` (single isomer, unassigned) [Example 2Y, (S)-7-(4-(5-fluoro-2-((S)-1-(tetrahydro-2H-pyran-4-yl)ethoxy)phenyl)piperidin-1-yl)-2-(1,3,4-oxadiazol-2-yl)-5-oxa-2-azaspiro[3.4]octane or (S)-7-(4-(5-fluoro-2-((R)-1-(tetrahydro-2H-pyran-4-yl)ethoxy)phenyl)piperidin-1-yl)-2-(1,3,4-oxadiazol-2-yl)-5-oxa-2-azaspiro[3.4]octane] were 76%, 554 nM, 0% and more than 25000 nM.
Turning to `COc1cc(F)ccc1C1CCN([C@@H]2COC3(C2)CN(c2ncns2)C3)CC1` [Example 5E, (S)-7-(4-(4-fluoro-2-methoxyphenyl)piperidin-1-yl)-2-(1,2,4-thiadiazol-5-yl)-5-oxa-2-azaspiro[3.4]octane], in experiment [1], the Emax was 39% and the EC50 amounted to 345 nM. Further, in experiment [2], the Emax was 0% and the EC50 is more than 25000 nM.
Regarding `c1ccc(C2CCN([C@@H]3COC4(C3)CN(c3ncco3)C4)CC2)c(OC2COC2)c1` [Example 4C, (S)-2-(oxazol-2-yl)-7-(4-(2-(oxetan-3-yloxy)phenyl)piperidin-1-yl)-5-oxa-2-azaspiro[3.4]octane], in experiment [1], the Emax turned out to be 80% and the EC50 worked out at 7 nM. Besides, in experiment [2], the Emax came to 0% and the EC50 is more than 25000 nM.
For `COc1ccccc1C1CCN([C@@H]2COC3(C2)CN(c2nncs2)C3)CC1` [Example 5R, (S)-7-(4-(2-methoxyphenyl)piperidin-1-yl)-2-(1,3,4-thiadiazol-2-yl)-5-oxa-2-azaspiro[3.4]octane], in experiment [1], the Emax was 73% and the EC50 came out at 96 nM. Besides, in experiment [2], the Emax was found to be 0% and the EC50 was more than 25000 nM.
Consider `Fc1ccc(O[C@@H]2CCOC2)c(C2CCN([C@@H]3COC4(C3)CN(c3nnco3)C4)CC2)c1` [Example 1D, (S)-7-(4-(5-fluoro-2-(((R)-tetrahydrofuran-3-yl)oxy)phenyl)piperidin-1-yl)-2-(1,3,4-oxadiazol-2-yl)-5-oxa-2-azaspiro[3.4]octane], for which, in experiment [1], the Emax stood at 80% and the EC50 was 21 nM. Also, in experiment [2], the Emax was found to be 0% and the EC50 is more than 25000 nM.
Taken in the same sequence, the figures for `Fc1cc(OC2COC2)c(C2CCN([C@@H]3COC4(C3)CN(c3nnco3)C4)CC2)cc1F` [Example 2FF, (S)-7-(4-(4,5-difluoro-2-(oxetan-3-yloxy)phenyl)piperidin-1-yl)-2-(1,3,4-oxadiazol-2-yl)-5-oxa-2-azaspiro[3.4]octane] were 66%, 26 nM, 0% and more than 25000 nM.
For `c1ccc(C2CCN([C@@H]3COC4(C3)CN(c3nncs3)C4)CC2)c(OC2COC2)c1` [Example 5Q, (S)-7-(4-(2-(oxetan-3-yloxy)phenyl)piperidin-1-yl)-2-(1,3,4-thiadiazol-2-yl)-5-oxa-2-azaspiro[3.4]octane formate salt], in experiment [1], the Emax turned out to be 83% and the EC50 is 92 nM. Also, in experiment [2], the Emax was found to be 0% and the EC50 is more than 25000 nM.
Taken in the same sequence, the figures for `COc1cc(F)ccc1C1CCN([C@@H]2COC3(C2)CN(c2nncs2)C3)CC1` [Example 5T, (S)-7-(4-(4-fluoro-2-methoxyphenyl)piperidin-1-yl)-2-(1,3,4-thiadiazol-2-yl)-5-oxa-2-azaspiro[3.4]octane] were 61%, 208 nM, 0% and more than 25000 nM.
Taken in the same sequence, the figures for `COC(C)(C)CCOc1ccc(F)cc1C1CCN([C@@H]2COC3(C2)CN(c2nncs2)C3)CC1` [Example 5N, (S)-7-(4-(5-fluoro-2-(3-methoxy-3-methylbutoxy)phenyl)piperidin-1-yl)-2-(1,3,4-thiadiazol-2-yl)-5-oxa-2-azaspiro[3.4]octane] were 61%, 68 nM, 0% and more than 25000 nM.

(Values after patent publication US11485742B2, “2-azaspiro[3.4]octane derivatives as M4 agonists” (NOVARTIS AG, priority 2019, dated 2022).)
